In patent publication US11117919B2, “Icariside compound, preparation method thereof, and application thereof” (FOSHAN GOLDEN HEALTH TECHNOLOGY CO., LTD., priority 2015, dated 2021):

How the values were obtained:
[1] = system: S180 ascites tumor of mice; experiment: Inhibition of S180 tumor growth in mice; details: 60 mg/Kg i.p., 10 days
Experimental: NIH mice used for the tests were about 18-22 grams and divided into 10 mice per group. The liquid (0.2 ml) of S180 ascites tumor of mice was inoculated subcutaneously into the armpit region of mice. The next day after the inoculation, each group of mice were injected intraperitoneally: (1) physiological saline group; (2) solvent control group (DMSO); (3) positive control group [cyclophosphamide 60 mg/(kg·d)]; (4) low-dose group 1: icariside I 2 mg/(kg·d); (5) low-dose group 2: icariside I 5 mg/(kg·d); (6) middle-dose group: icariside I 10 mg/(kg·d); (7) high-dose group: icariside I 20 mg/(kg·d). After administration for 10 continuous days, the administration was stopped and on the next day, the mice were weighed and sacrificed with tumor mass stripped and weighed. The physiological saline group and solvent group were used as a control for calculation of tumor inhibition rate.

[2] = system: human peripheral blood mixed lymphocytes; experiment: IFN-γ production in mixed lymphocyte culture (MLC) reaction; type: cell-based; details: final concentration 1000 ng/ml, 120 h
Experimental: Effect of icariside I on promotion of γ-interferon (interferon-gamma, IFN-γ) production by human peripheral blood mixed lymphocytes during culture (an experimental model mimicking enhancing immunity in human body).
(1) Preparation of human peripheral blood mononuclear cells (PBMCs): following the method in Example 5 (2), peripheral blood PBMCs from two normal human were prepared.
Cell concentrations of freshly isolated peripheral blood mononuclear cells (PBMCs) were adjusted to […] with RPMI1640 complete medium. Then, lymphocytes from two healthy human with equal volumes were mixed to maintain a total cell concentration of […]. Different concentrations (in a gradient) of or no icariside I were added thereto (with final concentration of 100 ng/ml, 1000 ng/ml) followed by fully mixing. Then the cells after stimulation were seeded and cultured in a 96-well round-bottom culture plate. The cell concentration per well was maintained at 2×10^5/ml (200 μl/well) and was incubated at 37° C. with 5% CO2 for 120 h in an incubator. The levels of cytokine IFN-γ were detected.
According to the method stated in Example 5 (4), the γ-interferon generated from human peripheral blood mixed lymphocyte culture (MLC) was detected.
Equal cell concentrations of lymphocytes from healthy human were mixed cultured for five days (120 h). The pharmaceutical icariside I was added (in a gradient of different pharmaceutical concentrations) or not added. […] Among them, the human lymphocyte A control is a group of samples containing only one kind of human lymphocyte, while human lymphocyte B control is a group of samples containing two kinds of human lymphocytes, that is, a control group in which two kinds of human lymphocytes were mixed for culture without adding icariside I. The concentrations of icariside I added were 0.1 and 1 μg/ml respectively. *P<0.05; **P<0.01. […]
Cell concentrations of freshly isolated peripheral blood mononuclear cells (PBMCs) were adjusted to 5×10^5/ml with RPMI1640 complete medium. […] The level of cytokine IFN-γ produced was then detected.

[3] = system: human peripheral blood mononuclear cells (PBMCs); experiment: Immunological screening model: IFN-γ produced in human PBMCs; type: cell-based
From the text: The present inventors have long been researching the active components in traditional Chinese herbal medicine and their applications in immunotherapy. The present inventors have established an immunological test model based on determination of the level of IFN-γ produced in human peripheral blood mononuclear cells (PBMCs). By this model, compounds having promotion (or inhibition) effects on human peripheral blood mononuclear cells (PBMCs) to produce γ-interferon can be screened out from chemical components from various sources including traditional Chinese herbal medicine, medicinal plants and so on. Since the γ-Interferon is an important protein (cytokine) in human body's immune system to resist attacks from diseases, its production level in body directly relates to the body's immunity. Therefore, the model is an ideal tool to screen and find functional pharmaceuticals for improving human immunity.
In addition, all the results and achievements of the present invention are based on the very effective screening model established by the present inventors. Therefore, a further objective of the present invention is to provide an experimental model for screening substances having impacts (either enhance or inhibit) on immunity. […] Finally, by using ELISA techniques, the levels of IFN-γ produced in the culture were measured at different incubation time. […]

O=P1(N(CCCl)CCCl)NCCCO1 (stereo not drawn) [cyclophosphamide, reference compound]
change of body weight (g) [1]: +4.5 g | tumor inhibition rate (%) with physiological saline group as control [1]: 42.3% | tumor inhibition rate (%) with solvent group as control [1]: 55.2% | weight of tumor (x ± SD, g) [1]: 0.6 ± 0.06 g

COc1ccc(-c2oc3c(CC=C(C)C)c(O[C@@H]4O[C@H](CO)[C@@H](O)[C@H](O)[C@H]4O)cc(O)c3c(=O)c2O[C@@H]2O[C@@H](C)[C@H](O)[C@@H](O)[C@H]2O)cc1 [icariin, reference compound]
ability to promote human γ-interferon production in mixed lymphocyte culture [2]: almost no effect

CC(C)=CCc1c(OC2OC(CO)C(O)C(O)C2O)cc(O)c2c(=O)c(O)c(-c3ccc(O)cc3)oc12 (stereo not drawn) [icariside C]
effect in promoting PBMCs to generate IFN-γ [3]: significant effect
